Earlier results on one substance are cited in patent EP4005587B1, “PHARMACEUTICAL COMPOSITION FOR TREATING LEVODOPA-INDUCED DYSKINESIA OR FOR SUPPRESSING PROGRESSION THEREOF” (Peptron, Inc., priority 2019, dated 2026).

For series [1] the following is noted: compared to GLP-1-Tf.
The subject of series [2] is lesioned rats.
The test system of series [3] is MPTP mouse model for Parkinson's disease. The following applies: given daily for 7 days after treatment.

For exendin-4, the rotarod performance result in series [1] was “improve rotarod performance”. For the same substance, the “acute effects of L-DOPA” value in series [2] (lesioned rats) is recorded as “potentiated”. In series [2] (rat, in vivo), the 6-OHDA induced damage entry was “reduces 6-OHDA induced damage” and the LIDS entry was “progressive reduction”. For the same substance, the neuro-protection entry in series [3] is reported as “not effective”.
